Reference: PMC8173610 (Biochemistry, 2021)

Molecular target: microtubule-associated protein tau (Homo sapiens, UniProt P10636)
Assay type: biochemical

microtubule-associated protein tau, sequence (P10636 1-441 isoform P10636-8): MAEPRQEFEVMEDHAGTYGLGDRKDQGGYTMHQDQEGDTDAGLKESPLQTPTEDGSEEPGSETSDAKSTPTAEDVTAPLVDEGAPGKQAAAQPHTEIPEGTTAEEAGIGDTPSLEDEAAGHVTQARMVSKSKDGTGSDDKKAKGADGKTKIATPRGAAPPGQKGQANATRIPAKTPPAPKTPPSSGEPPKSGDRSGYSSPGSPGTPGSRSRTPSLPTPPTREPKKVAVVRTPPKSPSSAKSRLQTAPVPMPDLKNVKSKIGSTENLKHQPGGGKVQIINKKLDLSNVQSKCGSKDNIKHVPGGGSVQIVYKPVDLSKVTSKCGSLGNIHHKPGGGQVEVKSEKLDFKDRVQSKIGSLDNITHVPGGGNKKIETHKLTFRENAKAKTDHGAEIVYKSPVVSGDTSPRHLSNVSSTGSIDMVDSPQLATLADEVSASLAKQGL

IC50: 35 µM
Compound: CCCCCCCCCc1cc2cc(O)c(C)c(O)c2cn1 [ANTC-15, 7-methyl-3-nonylisoquinoline-6,8-diol]
